Test results from US12286442B2, “Methods and materials for increasing transcription factor eb polypeptide levels” (University of Pittsburgh—Of the Commonwealth System of …, priority 2019, dated 2025).

Tests used:
[1] = tested on: TFEB; assay: High content screen measuring TFEB nuclear accumulation (TFEB nuclear/cytosol ratio) in BEAS-2B cells stably expressing TFEB-EGFP; type: cell-based, human; settings: 18 hours incubation
Outline: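 Readout: lowest compound concentration giving a 25% rise in nuclear/cytosol TFEB-GFP ratio, from DAPI-masked nuclear and mask-expanded cytosolic signals. Cells (BEAS-2B, TFEB-EGFP stable, ~2300–2500/well) rested 8 hours, then treated 18 hours with compound serial dilutions in 2% FBS medium before PFA fixation and DAPI staining.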

[2] = tested on: BEAS-2B cells; assay: Toxicity: compound concentration needed to induce greater than 50 percent of cell loss; type: cell-based, human; settings: 18 hours incubation
Outline: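 Reported value is the concentration giving greater than 50 percent cell loss, grouped into bins (≥25 μM; between 1 and 25 μM; ≤1 μM as "+++"). Measured by high-content imaging of DAPI-stained BEAS-2B TFEB-EGFP cells fixed after 18 h compound exposure.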

SMILES | efficacy (minimal compound concentration needed to increase TFEB nuclear/cytosol ratio by 25%) [1] | toxicity (compound concentration needed to induce greater than 50 percent of cell loss) [2]
Fc1cccc2nc(-c3ccncc3)nc(Nc3ccc4[nH]ccc4c3)c12 [Compound 111] | + (“+” equals >25 μM) | + (cell loss of greater than 50 percent at a concentration that equals or is greater than 25 μM was represented as)
Fc1ccc2c(Nc3ccc4[nH]ccc4c3)nc(-c3ccncc3)nc2c1 [Compound 112] | +++ (“+++” equals ≤1 μM) | + (cell loss of greater than 50 percent at a concentration that equals or is greater than 25 μM was represented as)
COc1ccc2nc(-c3ccncc3)nc(Nc3ccc4[nH]ccc4c3)c2c1 [Compound 113] | +++ (“+++” equals ≤1 μM) | ++ (cell loss of greater than 50 percent at a concentration less than 25 μM and greater than 1 μM was represented as)
COc1ccc2c(Nc3ccc4[nH]ccc4c3)nc(-c3ccncc3)nc2c1 [Compound 114] | +++ (“+++” equals ≤1 μM) | ++ (cell loss of greater than 50 percent at a concentration less than 25 μM and greater than 1 μM was represented as)
Cc1ccc2nc(-c3ccncc3)nc(Nc3ccc4[nH]ccc4c3)c2c1 [Compound 116] | +++ (“+++” equals ≤1 μM) | + (cell loss of greater than 50 percent at a concentration that equals or is greater than 25 μM was represented as)
Cc1cccc2c(Nc3ccc4[nH]ccc4c3)nc(-c3ccncc3)nc12 [Compound 117] | +++ (“+++” equals ≤1 μM) | + (cell loss of greater than 50 percent at a concentration that equals or is greater than 25 μM was represented as)
Cc1nc2ccc(Nc3nc(-c4ccncc4)nc4ccncc34)cc2s1 [Compound 118] | ++ (“++” equals between ≤25 μM and >1 μM) | + (cell loss of greater than 50 percent at a concentration that equals or is greater than 25 μM was represented as)
CCc1nc2ccc(Nc3nc(-c4ccncc4)nc4ccncc34)cc2s1 [Compound 119] | + (“+” equals >25 μM) | + (cell loss of greater than 50 percent at a concentration that equals or is greater than 25 μM was represented as)
CC(C)c1nc2ccc(Nc3nc(-c4ccncc4)nc4ccncc34)cc2s1 [Compound 120] | + (“+” equals >25 μM) | + (cell loss of greater than 50 percent at a concentration that equals or is greater than 25 μM was represented as)
c1cc(-c2nc(Nc3ccc4nc(C5CC5)sc4c3)c3cnccc3n2)ccn1 [Compound 121] | + (“+” equals >25 μM) | + (cell loss of greater than 50 percent at a concentration that equals or is greater than 25 μM was represented as)
c1cc(-c2nc(Nc3ccc4ncsc4c3)c3cnccc3n2)ccn1 [Compound 122] | + (“+” equals >25 μM) | + (cell loss of greater than 50 percent at a concentration that equals or is greater than 25 μM was represented as)
c1cc(-c2nc(Nc3ccc4c(c3)OCO4)c3cnccc3n2)ccn1 [Compound 123] | ++ (“++” equals between ≤25 μM and >1 μM) | + (cell loss of greater than 50 percent at a concentration that equals or is greater than 25 μM was represented as)
CC(C)(C)c1cc2cc(Nc3nc(-c4ccncc4)nc4ccncc34)ccc2[nH]1 [Compound 124] | +++ (“+++” equals ≤1 μM) | + (cell loss of greater than 50 percent at a concentration that equals or is greater than 25 μM was represented as)
c1cc(-c2nc(Nc3ccc4cn[nH]c4c3)c3cnccc3n2)ccn1 [Compound 125] | ++ (“++” equals between ≤25 μM and >1 μM) | + (cell loss of greater than 50 percent at a concentration that equals or is greater than 25 μM was represented as)
Cc1c(Nc2nc(-c3ccncc3)nc3ccncc23)ccc2[nH]ccc12 [Compound 126] | ++ (“++” equals between ≤25 μM and >1 μM) | + (cell loss of greater than 50 percent at a concentration that equals or is greater than 25 μM was represented as)
c1cnc2ccc(Nc3nc(-c4ccncc4)nc4ccncc34)cc2c1 [Compound 127] | ++ (“++” equals between ≤25 μM and >1 μM) | + (cell loss of greater than 50 percent at a concentration that equals or is greater than 25 μM was represented as)
Cc1nc2ccc(Nc3nc(-c4ccncc4)nc4ncccc34)cc2s1 [Compound 128] | +++ (“+++” equals ≤1 μM) | + (cell loss of greater than 50 percent at a concentration that equals or is greater than 25 μM was represented as)
CCc1nc2ccc(Nc3nc(-c4ccncc4)nc4ncccc34)cc2s1 [Compound 129] | +++ (“+++” equals ≤1 μM) | + (cell loss of greater than 50 percent at a concentration that equals or is greater than 25 μM was represented as)
CC(C)c1nc2ccc(Nc3nc(-c4ccncc4)nc4ncccc34)cc2s1 [Compound 130] | +++ (“+++” equals ≤1 μM) | + (cell loss of greater than 50 percent at a concentration that equals or is greater than 25 μM was represented as)
c1cnc2nc(-c3ccncc3)nc(Nc3ccc4nc(C5CC5)sc4c3)c2c1 [Compound 131] | +++ (“+++” equals ≤1 μM) | + (cell loss of greater than 50 percent at a concentration that equals or is greater than 25 μM was represented as)
c1cnc2nc(-c3ccncc3)nc(Nc3ccc4ncsc4c3)c2c1 [Compound 132] | +++ (“+++” equals ≤1 μM) | + (cell loss of greater than 50 percent at a concentration that equals or is greater than 25 μM was represented as)
CC(C)(C)c1cc2cc(Nc3nc(-c4ccncc4)nc4ncccc34)ccc2[nH]1 [Compound 134] | +++ (“+++” equals ≤1 μM) | + (cell loss of greater than 50 percent at a concentration that equals or is greater than 25 μM was represented as)
c1cnc2nc(-c3ccncc3)nc(Nc3ccc4cn[nH]c4c3)c2c1 [Compound 135] | ++ (“++” equals between ≤25 μM and >1 μM) | + (cell loss of greater than 50 percent at a concentration that equals or is greater than 25 μM was represented as)
c1cnc2nc(-c3ccncc3)nc(Nc3ccc4cnsc4c3)c2c1 [Compound 136] | +++ (“+++” equals ≤1 μM) | + (cell loss of greater than 50 percent at a concentration that equals or is greater than 25 μM was represented as)
Cc1c(Nc2nc(-c3ccncc3)nc3ncccc23)ccc2[nH]ccc12 [Compound 137] | +++ (“+++” equals ≤1 μM) | + (cell loss of greater than 50 percent at a concentration that equals or is greater than 25 μM was represented as)
c1cnc2ccc(Nc3nc(-c4ccncc4)nc4ncccc34)cc2c1 [Compound 138] | +++ (“+++” equals ≤1 μM) | + (cell loss of greater than 50 percent at a concentration that equals or is greater than 25 μM was represented as)
c1cc(-c2nc(Nc3ccc4cnsc4c3)c3cnccc3n2)ccn1 [Compound 139] | + (“+” equals >25 μM) | + (cell loss of greater than 50 percent at a concentration that equals or is greater than 25 μM was represented as)
Cc1nc2ccc(Nc3nc(-c4ccncc4)nc4ccncc34)cc2o1 [Compound 140] | + (“+” equals >25 μM) | + (cell loss of greater than 50 percent at a concentration that equals or is greater than 25 μM was represented as)
Cn1cnc2ccc(Nc3nc(-c4ccncc4)nc4ccccc34)cc21 [Compound 141] | +++ (“+++” equals ≤1 μM) | ++ (cell loss of greater than 50 percent at a concentration less than 25 μM and greater than 1 μM was represented as)
c1ccc2c(Nc3ccc4ncoc4c3)nc(-c3ccncc3)nc2c1 [Compound 142] | +++ (“+++” equals ≤1 μM) | + (cell loss of greater than 50 percent at a concentration that equals or is greater than 25 μM was represented as)
